# Experimental data taken from ChEMBL document CHEMBL5614465, “Discovery of the First Clinical Protein Degrader for the Treatment of Autoimmune Indications: Orally Bioavailable and Selective IRAK4 Degrader KT-474” (J Med Chem, 2024).
# Biological target: Protein cereblon/Interleukin-1 receptor-associated kinase 4 (Homo sapiens, UniProt Q9NWZ3+Q96SW2)
# Assay: PROTAC activity at CRBN/IRAK4 in human HEK293T cells assessed as induction of IRAK4 degradation measured after 24 hrs by immunoblotting analysis
# Format: cell-based
# Sequence of Protein cereblon/Interleukin-1 receptor-associated kinase 4 (Q9NWZ3 whole entry): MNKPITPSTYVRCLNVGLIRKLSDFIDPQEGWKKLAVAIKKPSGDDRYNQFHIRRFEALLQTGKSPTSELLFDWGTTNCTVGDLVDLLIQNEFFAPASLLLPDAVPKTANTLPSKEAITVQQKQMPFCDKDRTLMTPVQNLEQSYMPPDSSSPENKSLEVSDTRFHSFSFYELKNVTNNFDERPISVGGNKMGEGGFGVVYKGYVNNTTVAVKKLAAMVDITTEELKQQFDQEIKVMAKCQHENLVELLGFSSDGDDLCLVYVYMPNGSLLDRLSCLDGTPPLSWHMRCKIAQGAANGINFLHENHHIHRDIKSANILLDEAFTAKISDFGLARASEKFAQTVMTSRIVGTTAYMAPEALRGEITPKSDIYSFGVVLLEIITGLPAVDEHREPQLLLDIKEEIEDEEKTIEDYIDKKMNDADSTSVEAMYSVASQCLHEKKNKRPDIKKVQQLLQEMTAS
# Sequence of Protein cereblon/Interleukin-1 receptor-associated kinase 4 (Q96SW2 whole entry): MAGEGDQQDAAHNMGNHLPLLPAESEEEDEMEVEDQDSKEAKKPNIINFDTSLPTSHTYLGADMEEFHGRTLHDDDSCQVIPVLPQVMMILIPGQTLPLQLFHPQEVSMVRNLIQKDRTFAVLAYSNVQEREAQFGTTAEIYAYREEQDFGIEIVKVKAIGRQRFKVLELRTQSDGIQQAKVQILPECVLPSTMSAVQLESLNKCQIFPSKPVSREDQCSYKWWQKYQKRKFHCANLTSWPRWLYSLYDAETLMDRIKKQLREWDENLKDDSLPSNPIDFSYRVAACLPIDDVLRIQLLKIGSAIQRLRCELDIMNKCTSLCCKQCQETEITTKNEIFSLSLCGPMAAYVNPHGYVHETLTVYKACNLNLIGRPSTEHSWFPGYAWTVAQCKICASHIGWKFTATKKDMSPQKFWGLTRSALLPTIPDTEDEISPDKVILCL
smiles,measurement,value
CC(C)Nc1cc(-n2ccc3cc(C#N)cnc32)ncc1C(=O)N[C@H]1CC[C@H](C(=O)NCCOCCNC(=O)COc2cccc3c2C(=O)N(C2CCC(=O)NC2=O)C3=O)CC1 (stereo partly specified),DC50,405 nM
